Source: patent US9084770B2, “Modulation of insulin like growth factor I receptor expression in cancer” (Antisense Therapeutics, Ltd., priority 2008, dated 2015)

The substances below were run on human IGF-IR mRNA (assay: Antisense inhibition of human IGF-IR mRNA levels by quantitative RT-PCR (Table 1)). Conditions: as shown in Table 1.
Assay type: cell-based
Design: %INHIB (human IGF-IR mRNA levels): concentration or dose not given beside the values
From the text: Treatment of A549 cell cultures with oligonucleotides targeting IGF-IR is as described in WO 2004/072284.
Quantitation of IGF-IR mRNA levels was accomplished by RT-PCR using the ABI PRISM (trademark) 7600, 7700, or 7900 Sequence Detection System (PE-Applied Biosystems, Foster City, Calif.) according to manufacturer's instructions. This is a closed-tube, non-gel-based, fluorescence detection system which allows high-throughput quantitation of PCR products in real-time. As opposed to standard PCR in which amplification products are quantitated after the PCR is completed, products in real-time quantitative PCR are quantitated as they accumulate. This is accomplished by including in the PCR reaction an oligonucleotide probe that anneals specifically between the forward and reverse PCR primers, and contains two fluorescent dyes. A reporter dye (e.g., FAM or JOE, obtained from either PE-Applied Biosystems, Foster City, Calif., Operon Technologies Inc., Alameda, Calif. or Integrated DNA Technologies Inc., Coralville, Iowa) is attached to the 5′-end of the probe and a quencher dye (e.g., TAMRA, obtained from either PE-Applied Biosystems, Foster City, Calif., Operon Technologies Inc., Alameda, Calif. or Integrated DNA Technologies Inc., Coralville, Iowa) is attached to the 3′-end of the probe. When the probe and dyes are intact, reporter dye emission is quenched by the proximity of the 3′ quencher dye. During amplification, annealing of the probe to the target sequence creates a substrate that can be cleaved by the 5′-exonuclease activity of Taq polymerase. […] With each cycle, additional reporter dye molecules are cleaved from their respective probes, and the fluorescence intensity is monitored at regular intervals by laser optics built into the ABI PRISM (trademark) Sequence Detection System. In each assay, a series of parallel reactions containing serial dilutions of mRNA from untreated control samples generates a standard curve that is used to quantitate the percent inhibition after antisense oligonucleotide treatment of test samples.
PCR reagents were obtained from Invitrogen Corporation, (Carlsbad, Calif.). RT-PCR reactions were carried out by adding 20 μL PCR cocktail (2.5×PCR buffer minus MgCl2, 6.6 mM MgCl2, 375 μM each of dATP, dCTP, […] and dGTP, 375 nM each of forward primer and reverse primer, 125 nM of probe, 4 Units RNAse inhibitor, 1.25 Units PLATINUM (registered trademark) Taq, 5 Units MuLV reverse transcriptase, and 2.5×ROX dye) to 96-well plates containing 30 μL total RNA solution (20-200 ng). The RT reaction was carried out by incubation for 30 minutes at 48° C. Following a 10 minute incubation at 95° C. to activate the PLATINUM (trademark) Taq, 40 cycles of a two-step PCR protocol were carried out: 95° C. for 15 seconds (denaturation) followed by 60° C. for 1.5 minutes (annealing/extension).
Gene target quantities obtained by RT-PCR are normalized using either the expression level of GAPDH, a gene whose expression is constant, or by quantifying total RNA using RiboGreen (trademark) (Molecular Probes, Inc. Eugene, Oreg.). GAPDH expression is quantified by RT-PCR, by being run simultaneously with the target, multiplexing, or separately. Total RNA is quantified using RiboGreen (trademark) RNA quantification reagent (Molecular Probes, Inc. Eugene, Oreg.). Methods of RNA quantification by RiboGreen (trademark) are taught in Jones et al., 1998.
Probes and primers to human IGF-IR were designed to hybridize to the IGF-IR nucleotide sequence, using published sequence information (GenBank accession number NM000875 (SEQ ID NO:76) or M69229 (SEQ ID NO:77) which is the 5′ untranslated of the IGF-IR gene sequence (see FIG. 6).
In accordance with the present invention, a series of antisense compounds were designed to target different regions of the human IGF-IR mRNA or the 5′ untranslated region, using published sequences set forth in NM000875 (SEQ ID NO:77) and M69229 (SEQ ID NO:76). […]

Substance | inhibition of IGF-IR expression (lead compounds)
323737 (antisense CTGCTTCGGCTGGACATGGT; listed as DNA, chemistry not fully specified) [compound 323737] | demonstrated inhibition
323762 (antisense GCCTTGTGTCCTGAGTGTCT; listed as DNA, chemistry not fully specified) [compound 323762] | demonstrated inhibition
175307 (antisense AAGTCTCAAACTCAGTCTTC; listed as DNA, chemistry not fully specified) [compound 175307] | demonstrated inhibition
323767 (antisense CCAGCGTGTCTCTCAAATGG; listed as DNA, chemistry not fully specified) [compound 323767] | demonstrated inhibition

Same assay, conditions: quantitative RT-PCR; averages from 3 experiments

Substance | %INHIB (human IGF-IR mRNA levels)
323749 (antisense GCGCTGCAGCCCAGCTTCTC; listed as DNA, chemistry not fully specified) [compound 323749] | 71%
323737 (antisense CTGCTTCGGCTGGACATGGT; listed as DNA, chemistry not fully specified) [compound 323737] | 84%
323762 (antisense GCCTTGTGTCCTGAGTGTCT; listed as DNA, chemistry not fully specified) [compound 323762] | 84%
175307 (antisense AAGTCTCAAACTCAGTCTTC; listed as DNA, chemistry not fully specified) [compound 175307] | 86%
323723 (antisense AGCAGCGGTAGTTGTACTCA; listed as DNA, chemistry not fully specified) [compound 323723] | 70%
323752 (antisense TCCTGTCTGGACACACATTC; listed as DNA, chemistry not fully specified) [compound 323752] | 66%
175305 (antisense ATCCAGGACACACACAAAGC; listed as DNA, chemistry not fully specified) [compound 175305] | 81%
323769 (antisense CATCACTGACCTCTTTCTAT; listed as DNA, chemistry not fully specified) [compound 323769] | 0%
323741 (antisense GTTATCCACTCTGCTCTCAA; listed as DNA, chemistry not fully specified) [compound 323741] | 57%
323699 (antisense CTTCAGCTGCTGATAGTCGT; listed as DNA, chemistry not fully specified) [compound 323699] | 74%
323726 (antisense TGGGCACATTTTCTGGCAGC; listed as DNA, chemistry not fully specified) [compound 323726] | 57%
323729 (antisense ATGTTCCAGCTGTTGGAGCC; listed as DNA, chemistry not fully specified) [compound 323729] | 72%
323743 (antisense TTGCAGCTGTGGATATCGAT; listed as DNA, chemistry not fully specified) [compound 323743] | 53%
323725 (antisense TTTGTGGTCCAGCAGCGGTA; listed as DNA, chemistry not fully specified) [compound 323725] | 67%
323756 (antisense ACTCCTTCATAGACCATCCC; listed as DNA, chemistry not fully specified) [compound 323756] | 26%
323724 (antisense GGTCCAGCAGCGGTAGTTGT; listed as DNA, chemistry not fully specified) [compound 323724] | 60%
323754 (antisense CATAGAAGAACACAGGATCT; listed as DNA, chemistry not fully specified) [compound 323754] | 33%
323716 (antisense CACAGGTCCCCACATTCCTT; listed as DNA, chemistry not fully specified) [compound 323716] | 42%
175300 (antisense GCTGGTAAACAAGAGCCCCA; listed as DNA, chemistry not fully specified) [compound 175300] | 54%

Substance | %INHIB (human IGF-IR mRNA levels)
175298 (antisense GGAGTCAAAATGAATGAGCG; listed as DNA, chemistry not fully specified) [compound 175298] | 74%
323736 (antisense AGGAAATTCTCAAAGACTTT; listed as DNA, chemistry not fully specified) [compound 323736] | 43%
323767 (antisense CCAGCGTGTCTCTCAAATGG; listed as DNA, chemistry not fully specified) [compound 323767] | 84%
323751 (antisense GCCACTTTAAAAAGATGGAG; listed as DNA, chemistry not fully specified) [compound 323751] | 77%
323700 (antisense CCCTCGATCACCGTGCAGTT; listed as DNA, chemistry not fully specified) [compound 323700] | 56%
323710 (antisense AAGCCCAATATCCTTGAGAT; listed as DNA, chemistry not fully specified) [compound 323710] | 43%
175320 (antisense CCAAATCCAGGACACACACA; listed as DNA, chemistry not fully specified) [compound 175320] | 64%
323765 (antisense AAAAAGCTGCTTGCATATTG; listed as DNA, chemistry not fully specified) [compound 323765] | 74%
175324 (antisense TGAAGGTCACAGCCGAGGCG; listed as DNA, chemistry not fully specified) [compound 175324] | 57%
323732 (antisense GTGAGGGTCACAGCCTTGAC; listed as DNA, chemistry not fully specified) [compound 323732] | 59%
175313 (antisense TAGGCGAGGAAAAACAAGCC; listed as DNA, chemistry not fully specified) [compound 175313] | 62%
323760 (antisense GCGATCTCCCAGAGGACGAC; listed as DNA, chemistry not fully specified) [compound 323760] | 72%
175304 (antisense TCGCTGAAGGTCACAGCCGA; listed as DNA, chemistry not fully specified) [compound 175304] | 76%
323757 (antisense CGGAGATAACTTTTGAGATC; listed as DNA, chemistry not fully specified) [compound 323757] | 35%
323705 (antisense TTGTAGAAGAGTTTCCAGCC; listed as DNA, chemistry not fully specified) [compound 323705] | 52%
175303 (antisense GAAGGTCACAGCCGAGGCGA; listed as DNA, chemistry not fully specified) [compound 175303] | 82%
323745 (antisense AGCCTCGTGGTTGCAGCTGT; listed as DNA, chemistry not fully specified) [compound 323745] | 75%
323733 (antisense CCATGGTGAGGGTCACAGCC; listed as DNA, chemistry not fully specified) [compound 323733] | 78%
